Assay results from PMC3984115 (PLoS ONE, 2014).
Where a SMILES comes first, the peptide text is derived from it. Bridges are numbered along the chain shown (N, C = ends). [ ]: non-standard residue; d: D form. Hyp = O=C(O)[C@@H]1C[C@@H](O)CN1

What was measured:
Assay in all cases: cell-based
[1] = target: T1, human α6/α3β2β3 nAChR (Homo sapiens, UniProt P17787+P32297+Q05901+Q15825)
T1 construct: expressed in transfected cells; host or cells: Xenopus laevis oocytes (cRNA injection, 1:1 ratio)

[2] = target: T2, human α6/α3β4 nAChR (Homo sapiens, UniProt P30926+P32297+Q15825)
T2 construct: expressed in transfected cells; host or cells: Xenopus laevis oocytes (cRNA injection, 1:1 ratio)
T2 sequence (P30926 whole entry, looked up): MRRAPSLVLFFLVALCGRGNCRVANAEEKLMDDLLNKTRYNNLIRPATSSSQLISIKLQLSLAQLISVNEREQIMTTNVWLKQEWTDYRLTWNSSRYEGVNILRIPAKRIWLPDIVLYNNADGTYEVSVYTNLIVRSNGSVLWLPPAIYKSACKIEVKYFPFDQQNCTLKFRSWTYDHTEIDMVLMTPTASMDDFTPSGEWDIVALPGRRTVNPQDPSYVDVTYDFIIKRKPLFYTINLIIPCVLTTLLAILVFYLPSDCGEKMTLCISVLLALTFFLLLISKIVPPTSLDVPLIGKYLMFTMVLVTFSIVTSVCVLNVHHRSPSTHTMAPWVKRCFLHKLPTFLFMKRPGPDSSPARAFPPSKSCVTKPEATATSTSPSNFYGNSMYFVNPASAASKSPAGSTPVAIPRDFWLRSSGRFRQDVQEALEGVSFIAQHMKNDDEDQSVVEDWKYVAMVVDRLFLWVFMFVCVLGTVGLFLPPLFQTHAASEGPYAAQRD
T2 sequence (P32297 whole entry, looked up): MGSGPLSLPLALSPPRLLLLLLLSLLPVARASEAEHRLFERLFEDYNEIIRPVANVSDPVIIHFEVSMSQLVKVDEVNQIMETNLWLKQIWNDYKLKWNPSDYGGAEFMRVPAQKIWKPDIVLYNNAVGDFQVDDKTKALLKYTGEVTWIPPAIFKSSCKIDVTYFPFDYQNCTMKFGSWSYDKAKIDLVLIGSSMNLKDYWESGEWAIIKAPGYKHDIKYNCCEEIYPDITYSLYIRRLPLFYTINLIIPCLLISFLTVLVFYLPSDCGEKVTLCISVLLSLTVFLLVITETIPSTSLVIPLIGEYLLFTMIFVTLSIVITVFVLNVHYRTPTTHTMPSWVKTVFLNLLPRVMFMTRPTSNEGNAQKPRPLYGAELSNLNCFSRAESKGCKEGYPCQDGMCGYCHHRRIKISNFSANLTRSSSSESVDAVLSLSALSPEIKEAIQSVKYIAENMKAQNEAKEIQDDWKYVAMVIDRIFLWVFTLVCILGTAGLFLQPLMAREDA
T2 sequence (Q15825 whole entry, looked up): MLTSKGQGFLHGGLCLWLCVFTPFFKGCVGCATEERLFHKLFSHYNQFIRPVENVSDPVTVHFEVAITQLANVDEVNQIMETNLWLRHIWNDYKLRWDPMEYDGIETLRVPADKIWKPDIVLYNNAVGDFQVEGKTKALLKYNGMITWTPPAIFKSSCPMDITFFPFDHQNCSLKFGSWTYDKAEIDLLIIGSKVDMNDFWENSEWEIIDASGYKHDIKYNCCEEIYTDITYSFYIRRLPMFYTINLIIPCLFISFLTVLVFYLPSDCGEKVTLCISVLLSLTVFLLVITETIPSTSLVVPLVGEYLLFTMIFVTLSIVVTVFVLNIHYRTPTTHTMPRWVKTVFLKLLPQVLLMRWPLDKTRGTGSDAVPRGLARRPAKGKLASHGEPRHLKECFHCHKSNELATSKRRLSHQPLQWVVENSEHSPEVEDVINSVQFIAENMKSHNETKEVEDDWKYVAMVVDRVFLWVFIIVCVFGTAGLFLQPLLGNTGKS

[3] = target: T3, human α3β4 nAChR (Homo sapiens, UniProt P30926+P32297)
T3 construct: expressed in transfected cells; host or cells: Xenopus laevis oocytes (cRNA injection, 1:1 ratio)
T3 sequence (P32297 32-505 limits assumed): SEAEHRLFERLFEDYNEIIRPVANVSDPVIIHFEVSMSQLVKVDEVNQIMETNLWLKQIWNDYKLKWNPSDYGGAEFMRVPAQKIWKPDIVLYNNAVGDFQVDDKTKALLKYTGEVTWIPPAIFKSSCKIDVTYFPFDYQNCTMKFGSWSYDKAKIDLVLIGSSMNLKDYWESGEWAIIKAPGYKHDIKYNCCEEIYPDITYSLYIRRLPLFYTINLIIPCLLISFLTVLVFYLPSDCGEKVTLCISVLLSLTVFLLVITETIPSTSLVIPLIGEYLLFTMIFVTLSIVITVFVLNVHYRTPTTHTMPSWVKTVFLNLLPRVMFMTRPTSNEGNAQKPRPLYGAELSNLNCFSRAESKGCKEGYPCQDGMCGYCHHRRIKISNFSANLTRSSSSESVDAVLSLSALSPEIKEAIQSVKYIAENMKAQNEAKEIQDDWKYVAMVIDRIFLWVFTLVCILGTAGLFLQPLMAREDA
T3 sequence (P30926 22-498 limits assumed): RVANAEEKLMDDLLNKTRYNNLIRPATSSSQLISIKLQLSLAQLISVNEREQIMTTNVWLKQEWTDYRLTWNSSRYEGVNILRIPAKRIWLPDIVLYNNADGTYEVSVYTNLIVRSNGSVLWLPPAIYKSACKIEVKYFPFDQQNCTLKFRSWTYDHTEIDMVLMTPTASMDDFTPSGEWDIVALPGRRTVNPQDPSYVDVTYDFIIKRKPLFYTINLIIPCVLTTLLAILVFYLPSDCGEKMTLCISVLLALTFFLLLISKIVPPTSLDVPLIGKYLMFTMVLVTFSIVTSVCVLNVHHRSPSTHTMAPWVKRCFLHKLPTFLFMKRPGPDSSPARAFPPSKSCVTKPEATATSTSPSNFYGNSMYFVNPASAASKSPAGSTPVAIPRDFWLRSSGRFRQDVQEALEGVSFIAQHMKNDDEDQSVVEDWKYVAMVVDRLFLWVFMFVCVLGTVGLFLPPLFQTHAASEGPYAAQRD

T1 sequence (P17787 whole entry, looked up): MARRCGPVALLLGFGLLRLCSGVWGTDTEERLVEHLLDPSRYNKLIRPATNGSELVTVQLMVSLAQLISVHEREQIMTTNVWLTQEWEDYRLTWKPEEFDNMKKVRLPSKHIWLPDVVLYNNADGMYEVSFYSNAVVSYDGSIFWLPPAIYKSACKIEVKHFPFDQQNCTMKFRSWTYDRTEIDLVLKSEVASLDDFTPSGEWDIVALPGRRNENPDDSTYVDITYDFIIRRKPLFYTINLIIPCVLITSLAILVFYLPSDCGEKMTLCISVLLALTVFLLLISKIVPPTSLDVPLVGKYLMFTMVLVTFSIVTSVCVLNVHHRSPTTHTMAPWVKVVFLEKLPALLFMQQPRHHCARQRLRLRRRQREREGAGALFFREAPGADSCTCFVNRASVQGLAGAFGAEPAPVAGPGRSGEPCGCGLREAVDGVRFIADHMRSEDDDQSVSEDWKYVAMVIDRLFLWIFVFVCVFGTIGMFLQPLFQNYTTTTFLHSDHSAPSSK
T1 sequence (P32297 whole entry, looked up): as the sequence (P32297 whole entry, looked up) above
T1 sequence (Q05901 whole entry, looked up): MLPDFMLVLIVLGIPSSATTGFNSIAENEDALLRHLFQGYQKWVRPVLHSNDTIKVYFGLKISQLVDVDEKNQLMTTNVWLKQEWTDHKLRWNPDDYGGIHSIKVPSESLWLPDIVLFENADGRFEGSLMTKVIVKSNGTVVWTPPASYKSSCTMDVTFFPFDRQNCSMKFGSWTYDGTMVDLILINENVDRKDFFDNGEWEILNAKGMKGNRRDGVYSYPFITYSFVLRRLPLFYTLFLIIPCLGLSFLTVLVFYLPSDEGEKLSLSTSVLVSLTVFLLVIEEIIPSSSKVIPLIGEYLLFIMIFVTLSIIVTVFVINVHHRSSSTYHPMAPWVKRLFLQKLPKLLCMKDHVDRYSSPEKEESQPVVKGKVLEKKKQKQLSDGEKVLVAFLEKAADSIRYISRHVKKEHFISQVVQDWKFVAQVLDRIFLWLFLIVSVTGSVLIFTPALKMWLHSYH
T1 sequence (Q15825 whole entry, looked up): as the sequence (Q15825 whole entry, looked up) above

SMILES | IC50 [1] | IC50 [2] | fold selectivity, α6/α3β4 over α6/α3β2β3 (IC50 ratio) [2] | IC50 [3]
CC(C)C[C@@H]1NC(=O)[C@H](C(C)C)NC(=O)[C@H](C)NC(=O)[C@@H]2CSSC[C@H](NC(=O)CN)C(=O)N[C@@H](CSSC[C@@H](C(N)=O)NC(=O)[C@H](Cc3ccc(O)cc3)NC1=O)C(=O)N[C@@H](CO)C(=O)N[C@@H](C)C(=O)N1C[C@H](O)C[C@H]1C(=O)N1CCC[C@H]1C(=O)N2 [BuIA[T5A,P6O]] (H-GCCSA[Hyp]PCAVLYC-NH2; disulfide 2-8, 3-13) | > 10 µM | 0.0111 µM | > 900 fold | 
CC(C)C[C@@H]1NC(=O)[C@H](C)NC(=O)[C@@H]2CSSC[C@H](NC(=O)CN)C(=O)N[C@@H](CSSC[C@@H](C(N)=O)NC(=O)[C@H](C)NC(=O)[C@H](CC(N)=O)NC(=O)[C@H](CO)NC(=O)[C@H](Cc3cnc[nH]3)NC(=O)[C@H](CCC(=O)O)NC1=O)C(=O)N[C@@H](CO)C(=O)N[C@@H](CC(N)=O)C(=O)N1CCC[C@H]1C(=O)N[C@@H](C(C)C)C(=O)N2 [MII[H9A,L15A]] (H-GCCSNPVCALEHSNAC-NH2; disulfide 2-8, 3-16) |  | 0.0133 µM |  | 1.4 µM
